Laboratory results: the NIST ThermoML archive (doi:10.1016/j.jct.2016.03.036)
Values joined by “and” are separate entries in the source; they are usually repeats but may differ in a detail not shown here. Equal entries are not always repeated. ± gives the expanded uncertainty stated by the source.

Test: xn = mol fraction of the nth substance listed
Details: Gas, Spherical resonator

[Ar] [argon] + O=C=O
Details	speed of sound
350.01 K, 487.4 kPa, x2 = 0.501	308.87 ± 0.52 m/s
350.01 K, 500.81 kPa, x2 = 0.7498	296.88 ± 0.5 m/s
350.01 K, 1987.2 kPa, x2 = 0.7498	293.21 ± 0.49 m/s
350.01 K, 1987.3 kPa, x2 = 0.7498	293.13 ± 0.49 m/s
350.01 K, 1987.4 kPa, x2 = 0.7498	293.08 ± 0.49 m/s
350.01 K, 1989.8 kPa, x2 = 0.501	307.6 ± 0.52 m/s and 307.57 ± 0.52 m/s
350.01 K, 1990 kPa, x2 = 0.501	307.46 ± 0.52 m/s
350.01 K, 4001.2 kPa, x2 = 0.501	306.39 ± 0.52 m/s and 306.37 ± 0.51 m/s
350.01 K, 4001.5 kPa, x2 = 0.501	306.3 ± 0.51 m/s
350.01 K, 4010.3 kPa, x2 = 0.7498	288.58 ± 0.49 m/s and 288.52 ± 0.54 m/s
350.01 K, 4010.6 kPa, x2 = 0.7498	288.5 ± 0.49 m/s
350.01 K, 6002.2 kPa, x2 = 0.501	305.92 ± 0.51 m/s and 305.92 ± 0.52 m/s
350.01 K, 6002.6 kPa, x2 = 0.501	305.94 ± 0.51 m/s
350.01 K, 6017.8 kPa, x2 = 0.7498	284.82 ± 0.48 m/s and 284.81 ± 0.48 m/s
350.01 K, 6018.2 kPa, x2 = 0.7498	284.8 ± 0.48 m/s
350.01 K, 7290.6 kPa, x2 = 0.501	306.26 ± 0.52 m/s and 306.02 ± 0.56 m/s
350.01 K, 7291.2 kPa, x2 = 0.501	306.19 ± 0.51 m/s
350.01 K, 8200.3 kPa, x2 = 0.7498	282.09 ± 0.48 m/s and 282.08 ± 0.48 m/s
350.01 K, 8201 kPa, x2 = 0.7498	282.12 ± 0.48 m/s
400.13 K, 501.93 kPa, x2 = 0.7498	316.14 ± 0.53 m/s
400.13 K, 1988.1 kPa, x2 = 0.7498	314.38 ± 0.53 m/s and 314.32 ± 0.54 m/s
400.13 K, 1988.3 kPa, x2 = 0.7498	314.31 ± 0.53 m/s
400.13 K, 4018.3 kPa, x2 = 0.7498	312.3 ± 0.52 m/s and 312.25 ± 0.53 m/s
400.13 K, 4018.6 kPa, x2 = 0.7498	312.17 ± 0.52 m/s
400.13 K, 6013.1 kPa, x2 = 0.7498	310.98 ± 0.52 m/s and 310.94 ± 0.52 m/s
400.13 K, 6013.5 kPa, x2 = 0.7498	310.89 ± 0.52 m/s
400.13 K, 7954.4 kPa, x2 = 0.7498	310.44 ± 0.52 m/s
400.13 K, 7954.5 kPa, x2 = 0.7498	310.43 ± 0.52 m/s
400.13 K, 7955.1 kPa, x2 = 0.7498	310.44 ± 0.52 m/s
400.19 K, 2000.8 kPa, x2 = 0.501	328.69 ± 0.55 m/s and 328.63 ± 0.55 m/s
400.19 K, 2000.9 kPa, x2 = 0.501	328.52 ± 0.55 m/s
400.2 K, 451.92 kPa, x2 = 0.501	328.79 ± 0.55 m/s
400.2 K, 4008.7 kPa, x2 = 0.501	328.95 ± 0.55 m/s and 329.02 ± 0.55 m/s
400.2 K, 4009 kPa, x2 = 0.501	328.85 ± 0.55 m/s
400.2 K, 5980.4 kPa, x2 = 0.501	329.82 ± 0.7 m/s and 329.89 ± 0.55 m/s
400.2 K, 5980.8 kPa, x2 = 0.501	329.73 ± 0.55 m/s
400.2 K, 7411 kPa, x2 = 0.501	330.82 ± 0.55 m/s
400.2 K, 7411.2 kPa, x2 = 0.501	330.79 ± 0.55 m/s
400.2 K, 7411.7 kPa, x2 = 0.501	330.75 ± 0.55 m/s
500.46 K, 1988.3 kPa, x2 = 0.501	365.88 ± 0.65 m/s and 365.86 ± 0.68 m/s
500.46 K, 1988.4 kPa, x2 = 0.501	365.73 ± 0.61 m/s
500.46 K, 4007.9 kPa, x2 = 0.501	367.67 ± 0.61 m/s and 367.61 ± 0.62 m/s
500.46 K, 4008.1 kPa, x2 = 0.501	367.56 ± 0.61 m/s
500.46 K, 6008.3 kPa, x2 = 0.501	369.75 ± 0.61 m/s and 369.73 ± 0.69 m/s
500.46 K, 6008.7 kPa, x2 = 0.501	369.69 ± 0.61 m/s
500.46 K, 7264.4 kPa, x2 = 0.501	371.24 ± 0.61 m/s and 371.28 ± 0.61 m/s
500.46 K, 7264.8 kPa, x2 = 0.501	371.19 ± 0.61 m/s
500.48 K, 501.81 kPa, x2 = 0.7498	351 ± 0.58 m/s
500.48 K, 2003.9 kPa, x2 = 0.7498	351.19 ± 0.58 m/s and 351.23 ± 0.58 m/s
500.48 K, 2004 kPa, x2 = 0.7498	351.03 ± 0.58 m/s
500.48 K, 4010 kPa, x2 = 0.7498	351.64 ± 0.58 m/s and 351.63 ± 0.58 m/s
500.48 K, 4010.3 kPa, x2 = 0.7498	351.5 ± 0.58 m/s
500.48 K, 6000.8 kPa, x2 = 0.7498	352.54 ± 0.59 m/s and 352.49 ± 0.66 m/s
500.48 K, 6001.2 kPa, x2 = 0.7498	352.39 ± 0.59 m/s
500.49 K, 8007.4 kPa, x2 = 0.7498	353.87 ± 0.59 m/s
500.49 K, 8007.5 kPa, x2 = 0.7498	353.82 ± 0.59 m/s
500.49 K, 8008 kPa, x2 = 0.7498	353.78 ± 0.59 m/s
500.5 K, 476.59 kPa, x2 = 0.501	364.75 ± 0.6 m/s
